According to ChEMBL document CHEMBL5532712, “A Screening of 10,240 NatureBank Fractions Identifies Nematicidal Activity in Agelasine-Containing Extracts from Sponges” (J Nat Prod, 2024):

Legend:
[1] = Toxicity in Zebrafish embryo assessed as reduction in viability at 50 uM measured after 24 hrs by microscope based analysis relative to control; set-up: species or system Danio rerio; conditions: read-out: Activity
[2] = Toxicity in Zebrafish embryo assessed as reduction in viability at 100 uM measured after 24 hrs by microscope based analysis relative to control; set-up: species or system Danio rerio; conditions: read-out: Activity
Caenorhabditis elegans [3] = test: Nematicidal activity against Caenorhabditis elegans assessed as total paralysis at 100 to 200 uM relative to control; assay type: functional; conditions: dose 100-200 µM
Caenorhabditis elegans [4] = test: Nematicidal activity against Caenorhabditis elegans assessed as reduction in larval motility; assay type: functional, organism-based

Structure (SMILES)	mortality at 24 h, 50 µM [1] [%]	mortality at 24 h, 100 µM [2] [%]	Activity (Caenorhabditis elegans [3]) [%]	IC50 (Caenorhabditis elegans [4]) [µM]
CC1=CC(=O)C[C@@H]2[C@@](C)(CC/C(C)=C/C[n+]3cn(C)c4ncnc(N)c43)[C@H](C)CC[C@@]12C	100	100	100	50
CC1=CCC[C@@H]2[C@@](C)(CC/C(C)=C/Cn3c[n+](C)c4ncnc(N)c43)[C@H](C)CC[C@@]12C	100	100		
C=CCCCCCCCCC[C@@H](O)[C@H](C)N [HALAMINOL A]	100	66.6		
